What was measured:
ASPC1 [1] = assay: Antiproliferative activity against human ASPC1 cells harboring […] assessed as inhibition of cell growth incubated for 5 days by crystal violet staining analysis; assay type: functional, cell-based; conditions: Homo sapiens, ASPC1, 120 h
AGS [2] = assay: Antiproliferative activity against human AGS cells harboring […] assessed as inhibition of cell growth incubated for 5 days by crystal violet staining analysis; assay type: functional, cell-based; conditions: Homo sapiens, AGS, 120 h
A549 = assay: Antiproliferative activity against human A549 cells harboring […] assessed as inhibition of cell growth incubated for 5 days by crystal violet staining analysis; assay type: functional, cell-based; conditions: Homo sapiens, A549, 120 h
NCI-H1299 = assay: Antiproliferative activity against human NCI-H1299 cells harboring KRAS wild type assessed as inhibition of cell growth incubated for 5 days by crystal violet staining analysis; assay type: functional, cell-based; conditions: NCI-H1299, 120 h
[3] = Inhibition of recombinant human His6-tagged KRAS4B G12D mutant incubated for 1 hr by HTRF assay
GTPase KRas = GTPase KRas (Homo sapiens, UniProt P01116); assay: Inhibition of recombinant human GTP-bound KRAS wild type (1 to 169 residues) incubated for 1 hr by HTRF assay
[4] = Half life in Sprague-Dawley rat at 1 mg/kg,iv measured upto 24 hrs by LC-MS/MS analysis; assay type: ADME, organism-based; conditions: in vivo
[5] = AUC in Sprague-Dawley rat at 1 mg/kg,iv measured upto 24 hrs by LC-MS/MS analysis; assay type: ADME, organism-based; set-up: dose 1 mg/kg, time < 24 hrs, route iv; conditions: in vivo
[6] = Clearance in Sprague-Dawley rat at 1 mg/kg,iv measured upto 24 hrs by LC-MS/MS analysis; assay type: ADME, organism-based; conditions: in vivo
[7] = Metabolic stability in rat liver microsomes assessed as half life at 150 uM measured after 60 mins in presence of NADPH by LC-MS/MS analysis; assay type: ADME, Microsome
[8] = Metabolic stability in monkey liver microsomes assessed as half life at 150 uM measured after 60 mins in presence of NADPH by LC-MS/MS analysis; assay type: ADME, Macaca mulatta, Microsome; conditions: rhesus monkey
[9] = Metabolic stability in dog liver microsomes assessed as half life at 150 uM measured after 60 mins in presence of NADPH by LC-MS/MS analysis; assay type: ADME, Canis lupus familiaris, Microsome
[10] = Metabolic stability in rat liver microsomes assessed as intrinsic clearance at 150 uM measured after 60 mins in presence of NADPH by LC-MS/MS analysis; assay type: ADME, Microsome; conditions: read-out: CLH
[11] = Metabolic stability in monkey liver microsomes assessed as intrinsic clearance at 150 uM measured after 60 mins in presence of NADPH by LC-MS/MS analysis; assay type: ADME, Macaca mulatta, Microsome; conditions: rhesus monkey, read-out: CLH
[12] = Metabolic stability in dog liver microsomes assessed as intrinsic clearance at 150 uM measured after 60 mins in presence of NADPH by LC-MS/MS analysis; assay type: ADME, Canis lupus familiaris, Microsome; conditions: read-out: CLH
ASPC1 [13] = assay: Induction of apoptosis in human ASPC1 cells harboring […] assessed as early apoptotic cells at 25 uM incubated for 24 hrs by annexin V and propidium iodide staining based flow cytometry analysis (reference value: 5.22%); assay type: functional
ASPC1 [14] = assay: Induction of apoptosis in human ASPC1 cells harboring […] assessed as late apoptotic cells at 25 uM incubated for 24 hrs by annexin V and propidium iodide staining based flow cytometry analysis (reference value: 6.96%); assay type: functional
ASPC1 [15] = assay: Induction of apoptosis in human ASPC1 cells harboring […] assessed as early apoptotic cells at 50 uM incubated for 24 hrs by annexin V and propidium iodide staining based flow cytometry analysis (reference value: 5.22%); assay type: functional
ASPC1 [16] = assay: Induction of apoptosis in human ASPC1 cells harboring […] assessed as late apoptotic cells at 50 uM incubated for 24 hrs by annexin V and propidium iodide staining based flow cytometry analysis (reference value: 6.96%); assay type: functional
AGS [17] = assay: Induction of apoptosis in human AGS cells harboring […] assessed as early apoptotic cells at 25 uM incubated for 24 hrs by annexin V and propidium iodide staining based flow cytometry analysis (reference value: 4.05%); assay type: functional
AGS [18] = assay: Induction of apoptosis in human AGS cells harboring […] assessed as late apoptotic cells at 25 uM incubated for 24 hrs by annexin V and propidium iodide staining based flow cytometry analysis (reference value: 7.74%); assay type: functional
AGS [19] = assay: Induction of apoptosis in human AGS cells harboring […] assessed as early apoptotic cells at 50 uM incubated for 24 hrs by annexin V and propidium iodide staining based flow cytometry analysis (reference value: 4.05%); assay type: functional
AGS [20] = assay: Induction of apoptosis in human AGS cells harboring […] assessed as late apoptotic cells at 50 uM incubated for 24 hrs by annexin V and propidium iodide staining based flow cytometry analysis (reference value: 7.74%); assay type: functional
ASPC1 [21] = assay: Antitumor activity against human ASPC1 cells xenografted in mouse assessed as inhibition of tumor growth at 10 mg/kg,ip administrated twice daily for 20 consecutive days relative to control; assay type: functional; conditions: read-out: TGI
ASPC1 [22] = assay: Antitumor activity against human ASPC1 cells xenografted in mouse assessed as inhibition of tumor growth at 20 mg/kg,ip administrated twice daily for 20 consecutive days relative to control; assay type: functional; conditions: read-out: TGI
[23] = Toxicity in mouse xenografted with human ASPC1 cells assessed as change in body weight at 10 mg/kg,ip administrated twice daily for 20 consecutive days; assay type: organism-based; conditions: in vivo
[24] = Toxicity in mouse xenografted with human ASPC1 cells assessed as change in body weight at 20 mg/kg,ip administrated twice daily for 20 consecutive days; assay type: organism-based; conditions: in vivo
[25] = Toxicity in mouse xenografted with human ASPC1 cells assessed as change in heart morphology at 10 mg/kg,ip administrated twice daily for 20 consecutive days by Hematoxylin-eosin staining based microscopic analysis; assay type: organism-based; conditions: in vivo
[26] = Toxicity in mouse xenografted with human ASPC1 cells assessed as change in heart morphology at 20 mg/kg,ip administrated twice daily for 20 consecutive days by Hematoxylin-eosin staining based microscopic analysis; assay type: organism-based; conditions: in vivo
[27] = Toxicity in mouse xenografted with human ASPC1 cells assessed as change in liver morphology at 10 mg/kg,ip administrated twice daily for 20 consecutive days by Hematoxylin-eosin staining based microscopic analysis; assay type: organism-based; conditions: in vivo
[28] = Toxicity in mouse xenografted with human ASPC1 cells assessed as change in liver morphology at 20 mg/kg,ip administrated twice daily for 20 consecutive days by Hematoxylin-eosin staining based microscopic analysis; assay type: organism-based; conditions: in vivo
[29] = Toxicity in mouse xenografted with human ASPC1 cells assessed as change in spleen morphology at 10 mg/kg,ip administrated twice daily for 20 consecutive days by Hematoxylin-eosin staining based microscopic analysis; assay type: organism-based; conditions: in vivo
[30] = Toxicity in mouse xenografted with human ASPC1 cells assessed as change in spleen morphology at 20 mg/kg,ip administrated twice daily for 20 consecutive days by Hematoxylin-eosin staining based microscopic analysis; assay type: organism-based; conditions: in vivo
[31] = Toxicity in mouse xenografted with human ASPC1 cells assessed as change in lung morphology at 10 mg/kg,ip administrated twice daily for 20 consecutive days by Hematoxylin-eosin staining based microscopic analysis; assay type: organism-based; conditions: in vivo
[32] = Toxicity in mouse xenografted with human ASPC1 cells assessed as change in lung morphology at 20 mg/kg,ip administrated twice daily for 20 consecutive days by Hematoxylin-eosin staining based microscopic analysis; assay type: organism-based; conditions: in vivo
[33] = Toxicity in mouse xenografted with human ASPC1 cells assessed as change in kidney morphology at 10 mg/kg,ip administrated twice daily for 20 consecutive days by Hematoxylin-eosin staining based microscopic analysis; assay type: organism-based; conditions: in vivo
[34] = Toxicity in mouse xenografted with human ASPC1 cells assessed as change in kidney morphology at 20 mg/kg,ip administrated twice daily for 20 consecutive days by Hematoxylin-eosin staining based microscopic analysis; assay type: organism-based; conditions: in vivo
[35] = Toxicity in mouse xenografted with human ASPC1 cells assessed as serum creatinine level at 10 mg/kg,ip administrated twice daily for 20 consecutive days (reference value: 28.2 +/- 2.1 umol/L); assay type: organism-based; conditions: in vivo
[36] = Toxicity in mouse xenografted with human ASPC1 cells assessed as serum creatinine level at 20 mg/kg,ip administrated twice daily for 20 consecutive days (reference value: 28.2 +/- 2.1 umol/L); assay type: organism-based; conditions: in vivo
[37] = Toxicity in mouse xenografted with human ASPC1 cells assessed as serum blood urea nitrogen level at 10 mg/kg,ip administrated twice daily for 20 consecutive days (reference value: 16.3 +/- 1.6 mmol/L); assay type: organism-based; conditions: in vivo
[38] = Toxicity in mouse xenografted with human ASPC1 cells assessed as serum blood urea nitrogen level at 20 mg/kg,ip administrated twice daily for 20 consecutive days (reference value: 16.3 +/- 1.6 mmol/L); assay type: organism-based; conditions: in vivo
[39] = Toxicity in mouse xenografted with human ASPC1 cells assessed as serum ratio of AST/ALT at 10 mg/kg,ip administrated twice daily for 20 consecutive days (reference value: 6.5 +/- 1.7); assay type: organism-based; conditions: in vivo
[40] = Toxicity in mouse xenografted with human ASPC1 cells assessed as serum ratio of AST/ALT at 20 mg/kg,ip administrated twice daily for 20 consecutive days (reference value: 6.5 +/- 1.7); assay type: organism-based; conditions: in vivo
[41] = Half life in Sprague-Dawley rat at 3 mg/kg,po measured upto 24 hrs by LC-MS/MS analysis; assay type: ADME, organism-based; conditions: in vivo
[42] = AUC in Sprague-Dawley rat at 3 mg/kg,po measured upto 24 hrs by LC-MS/MS analysis; assay type: ADME, organism-based; set-up: time < 24 hrs, dose 3 mg/kg, route po; conditions: in vivo

[2H]C([2H])(Oc1nc(N2C[C@H]3CC[C@@H](C2)N3)c2cnc(-c3cc(O)cc4ccc(F)c(C#C)c34)c(F)c2n1)C12CCCN1CC(=C(F)F)C2 (stereo partly drawn)
IC50 (ASPC1 [1]): 0.6 nM | IC50 (AGS [2]): 0.3 nM | IC50 (A549): 332 nM | IC50 (NCI-H1299): 1940 nM | IC50 [3]: 0.48 nM | IC50 (GTPase KRas): 10.2 nM | half-life [4]: 18.4 min | AUC at 24 h [5]: 37.2 ng·h/mL | clearance [6]: 490 mL/min/kg | half-life at 150 µM [7]: 83.5 min | half-life at 150 µM [8]: 24.3 min | half-life at 150 µM [9]: 26.8 min | microsomal CLint at 150 µM [10]: 16.6 µL/min/mg | microsomal CLint at 150 µM [11]: 57 µL/min/mg | microsomal CLint at 150 µM [12]: 51.8 µL/min/mg | Activity (ASPC1 [13]): 9.17% | Activity (ASPC1 [14]): 10% | Activity (ASPC1 [15]): 11.5% | Activity (ASPC1 [16]): 18.7% | Activity (AGS [17]): 11.4% | Activity (AGS [18]): 9.76% | Activity (AGS [19]): 13.1% | Activity (AGS [20]): 14% | inhibition in vivo at 10 mg/kg (ASPC1 [21]): 55.3% | inhibition in vivo at 20 mg/kg (ASPC1 [22]): 73.4% | Activity [23]: Non-Toxic | Activity [24]: Non-Toxic | Activity [25]: Non-Toxic | Activity [26]: Non-Toxic | Activity [27]: Non-Toxic | Activity [28]: Non-Toxic | Activity [29]: Non-Toxic | Activity [30]: Non-Toxic | Activity [31]: Non-Toxic | Activity [32]: Non-Toxic | Activity [33]: Non-Toxic | Activity [34]: Non-Toxic | Activity [35]: 25.9 µmol/L | Activity [36]: 22.2 µmol/L | Activity [37]: 13.5 mmol/L | Activity [38]: 14.1 mmol/L | Ratio [39]: 5 | Ratio [40]: 5.7

[2H]C([2H])(Oc1nc(N2C[C@H]3CC[C@@H](C2)N3)c2cnc(-c3cc(N)cc4ccc(F)c(C#C)c34)c(F)c2n1)C12CCCN1CC(=C(F)F)C2 (stereo partly drawn)
IC50 (ASPC1 [1]): 1.6 nM | IC50 (AGS [2]): 0.9 nM | IC50 (A549): 1190 nM | IC50 (NCI-H1299): 1850 nM | IC50 [3]: 1.19 nM | IC50 (GTPase KRas): 16.7 nM | half-life [41]: 22.9 min | AUC at 24 h [42]: 2.89 ng·h/mL | half-life [4]: 660 min | AUC at 24 h [5]: 102 ng·h/mL | clearance [6]: 168 mL/min/kg | half-life at 150 µM [7]: 92.4 min | half-life at 150 µM [8]: 30.5 min | half-life at 150 µM [9]: 85.6 min | microsomal CLint at 150 µM [10]: 15 µL/min/mg | microsomal CLint at 150 µM [11]: 45.4 µL/min/mg | microsomal CLint at 150 µM [12]: 16.2 µL/min/mg | Activity (ASPC1 [13]): 9.56% | Activity (ASPC1 [14]): 10.8% | Activity (ASPC1 [15]): 12.4% | Activity (ASPC1 [16]): 11.8% | Activity (AGS [17]): 8.84% | Activity (AGS [18]): 11% | Activity (AGS [19]): 9.08% | Activity (AGS [20]): 13.7% | inhibition in vivo at 10 mg/kg (ASPC1 [21]): 53.3% | inhibition in vivo at 20 mg/kg (ASPC1 [22]): 71.3% | Activity [23]: Non-Toxic | Activity [24]: Non-Toxic | Activity [25]: Non-Toxic | Activity [26]: Non-Toxic | Activity [27]: Non-Toxic | Activity [28]: Non-Toxic | Activity [29]: Non-Toxic | Activity [30]: Non-Toxic | Activity [31]: Non-Toxic | Activity [32]: Non-Toxic | Activity [33]: Non-Toxic | Activity [34]: Non-Toxic | Activity [35]: 29.7 µmol/L | Activity [36]: 23.5 µmol/L | Activity [37]: 19.2 mmol/L | Activity [38]: 16.7 mmol/L | Ratio [39]: 4.5 | Ratio [40]: 4.5
